Experimental data: patent publication US11007269B2, “P53 degradation inducing molecule and pharmaceutical composition” (Tokyo University of Science Foundation, priority 2016, dated 2021)

Target: endogenous wild-type p53 protein (Homo sapiens, UniProt P04637)
Experiment: Western blot of endogenous wild-type p53 protein degradation (knockdown) in HCT116 cells
Format: cell-based
Parameters: degradation (knockdown) of an endogenous wild-type p53 protein and MDM2 protein in HCT116 cells; endogenous in cells; host or cells: HCT116
Details: 48 hours after addition, vs DMSO control
Description: In Example 2, degradation (knockdown) of an endogenous wild-type p53 protein and MDM2 protein in HCT116 cells (human large intestinal cancer cells) to which TIBC-CANDDY_MLN had been added was evaluated by Western blot analysis.
HCT116 cells were seeded in a 24-well plate at a cell density of 8×10^4 cells/well, and then cultured under conditions of 37° C. and 5 vol % CO2 for 16 hours.
After 16 hours from cell seeding, TIBC-CANDDY_MLN or TIBC was added to HCT116 cells as follows. As a medium, a serum-free medium (37° C.) in which 1 mass % L-glutamine solution (Sigma-Aldrich) was added to D-MEM (high D-glucose, phenol red, sodium pyruvate (Wako Pure Chemical Industries, Ltd.)) was used. It is noted that the L-glutamine solution was added immediately before use. […]
After electrophoresis, proteins were transferred to a PVDF membrane (Immobion™-P, Millipore) under conditions of 100 V and 2 hours using a tank-type blotting device and a transfer buffer (25 mM Tris-HCl, 195 mM glycine, 0.01% SDS, 15% methanol). […] Subsequently, the membrane was treated with a chemiluminescence reagent Immobilon™ Western (Millipore), and then chemiluminescence was detected using a lumino image analyzer LAS-3000 (FUJIFILM Corporation).

Chain of endogenous wild-type p53 protein (P04637 whole entry): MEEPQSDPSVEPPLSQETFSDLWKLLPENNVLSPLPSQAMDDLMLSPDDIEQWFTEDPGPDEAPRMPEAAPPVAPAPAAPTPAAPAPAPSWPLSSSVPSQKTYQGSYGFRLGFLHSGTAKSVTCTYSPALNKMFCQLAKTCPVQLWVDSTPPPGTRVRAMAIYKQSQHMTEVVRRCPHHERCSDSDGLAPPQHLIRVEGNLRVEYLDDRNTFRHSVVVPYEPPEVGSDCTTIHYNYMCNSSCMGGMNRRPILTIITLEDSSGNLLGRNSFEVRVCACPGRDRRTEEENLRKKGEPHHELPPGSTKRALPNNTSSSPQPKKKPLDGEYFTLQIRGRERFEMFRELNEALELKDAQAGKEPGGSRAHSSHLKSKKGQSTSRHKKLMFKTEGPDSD

amount of the endogenous wild-type p53 protein (Western blot): reduced
SMILES: CC(C)C[C@H](NC(=O)CNC(=O)c1cc(Cl)ccc1Cl)C(=O)NCCCCCCC(=O)Nc1ccc(C(=O)/C=C/c2ccc(I)cc2)cc1 [TIBC-CANDDY_MLN]
